{"source": "patent US20260007133A1", "about": "“HERBICIDAL COMPOSITION COMPRISING AZINE COMPOUNDS” (BASF SE, priority 2022, published 2026)", "assay_type_in_all_cases": "in vivo", "key": {"[1]": {"tested_on": "Amaranthus retroflexus", "test": "Greenhouse pre-emergence (PRE) herbicidal test on AMARE", "details": "Amaranthus retroflexus, pre-emergence; AMARE PRE, use rate 2 gai/ha; read-out: % activity", "how_it_was_run": "(§1)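 Pre-emergence greenhouse assay: sown loamy-sand pots (humus approx. 3.0%) were kept under transparent hoods until rooting, then grown at species-appropriate 10-25° C or 20-35° C. Response ratings of 0 (no damage) to 100 (no plants emerged) were recorded 20 days after application.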"}, "[2]": {"tested_on": "Digitaria sanguinalis", "test": "Greenhouse post-emergence (POST) herbicidal test on DIGSA", "details": "for inhibition at 2 g/ha / inhibition at 8 g/ha: Digitaria sanguinalis, post-emergence; for inhibition at 2 g/ha: use rate 2 gai/ha", "how_it_was_run": "(§2)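 Weeds grown in loamy sand (~3.0% humus) to 3–15 cm were sprayed post-emergence with compounds suspended or emulsified in water, formulated as 5% emulsion concentrates. Plants were kept at 10-25 °C or 20-35 °C by species. Damage was scored 0–100 (100 = complete destruction) at 20 DAT.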"}, "[3]": {"tested_on": "Ipomoea hederacea", "test": "Greenhouse post-emergence (POST) herbicidal test on IPOHE", "details": "Ipomoea hederacea, post-emergence", "how_it_was_run": "as §2"}, "[4]": {"tested_on": "Geranium pusillum", "test": "Greenhouse post-emergence (POST) herbicidal test on GERPU", "details": "Geranium pusillum, post-emergence, 480 h, POST, GERPU, 20 DAT", "how_it_was_run": "as §2"}, "[5]": {"tested_on": "Ambrosia artemisiifolia", "test": "Greenhouse pre-emergence (PRE) herbicidal test on AMBEL", "details": "Ambrosia artemisiifolia, pre-emergence; for inhibition at 8 g/ha: use rate 8 gai/ha"}, "[6]": {"tested_on": "Lolium multiflorum", "test": "Greenhouse pre-emergence (PRE) herbicidal test on LOLMU", "details": "Lolium multiflorum, pre-emergence; for inhibition at 8 g/ha: use rate 8 gai/ha", "how_it_was_run": "as §1"}, "[7]": {"tested_on": "Abutilon theophrasti", "test": "Greenhouse pre-emergence (PRE) herbicidal test on ABUTH", "details": "Abutilon theophrasti, pre-emergence; for inhibition at 8 g/ha: use rate 8 gai/ha", "how_it_was_run": "as §1"}, "[8]": {"tested_on": "Euphorbia heterophylla", "test": "Greenhouse post-emergence (POST) herbicidal test on EPHHL", "details": "Euphorbia heterophylla, post-emergence, 480 h, POST, EPHHL, 20 DAT, read-out: solo application % activity", "how_it_was_run": "as §2"}, "[9]": {"tested_on": "Setaria viridis", "test": "Greenhouse pre-emergence (PRE) herbicidal test on SETVI", "details": "Setaria viridis, pre-emergence; for inhibition at 2 g/ha: use rate 2 gai/ha", "how_it_was_run": "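Herbicidal effect is scored from 0 (no damage) to 100 (no emergence or above-ground parts destroyed), 20 days after treatment. Application is pre-emergent onto sown pots, with components given as a 5% by weight emulsion concentrate in the spray liquor.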"}, "[10]": {"tested_on": "Euphorbia heterophylla", "test": "Greenhouse pre-emergence (PRE) herbicidal test on EPHHL", "details": "Euphorbia heterophylla, pre-emergence; for inhibition at 8 g/ha: use rate 8 gai/ha", "how_it_was_run": "as §1"}, "[11]": {"tested_on": "Geranium pusillum", "test": "Greenhouse pre-emergence (PRE) herbicidal test on GERPU", "details": "Geranium pusillum, pre-emergence, 480 h, PRE, use rate 2 gai/ha, 20 DAT", "excerpt": "The culture containers used were plastic pots containing loamy sand with approximately 3.0% of humus as substrate. The seeds of the test plants were sown separately for each species.\nFor the pre-emergence treatment, the active compounds, suspended or emulsified in water, were applied directly after sowing by means of finely distributing nozzles. The containers were irrigated gently to promote germination and growth and subsequently covered with transparent plastic hoods until the plants had rooted. This cover caused uniform germination of the test plants unless this was adversely affected by the active compounds.\nDepending on the species, the plants were kept at 10-25° C. and 20-35° C., respectively.\nThe test period extended over 2 to 4 weeks. During this time, the plants were tended and their response to the individual treatments was evaluated.\nEvaluation was carried out using a scale from 0 to 100. 100 means no emergence of the plants, or complete destruction of at least the above-ground parts, and 0 means no damage or normal course of growth. A good herbicidal activity is given at values of at least 70, and very good herbicidal activity is given at values of at least 85.\nIf not stated differently, the respective components A and B, and if appropriate, C were formulated as a 5% by weight strength emulsion concentrate and, with addition of the amount of solvent system, introduced into the spray liquor used for applying the active compound.\nAs indicated application was either post emergent (POST) at the respective growth stage (GS) of the weed (BBCH code), or pre-emergent (PRE).\nAssessment was 20 days after treatment (DAT)."}}, "note": "Where two headings read alike, the source gives them in different places."}
{"smiles": "COc1c(Cl)c(F)c(F)c(F)c1Nc1nc(N)nc(C(C)(C)F)n1", "note": "[Compound I-4, N4-(5-Chloro-2,3,4-trifluoro-6-methoxy-phenyl)-6-(1-fluoro-1-methyl-ethyl)-1,3,5-triazine-2,4-diamine]", "values": [{"measurement": "inhibition at 2 g/ha", "setting": "[1]", "value": 70, "unit": "%"}, {"measurement": "% activity", "setting": "[2]; DIGSA POST, use rate 8 gai/ha", "value": 35, "unit": "%"}, {"measurement": "inhibition at 2 g/ha", "setting": "[2]; 480 h, POST, DIGSA, 20 DAT, read-out: solo application % activity", "value": 0, "unit": "%"}, {"measurement": "inhibition at 8 g/ha", "setting": "[2]; 480 h, POST, DIGSA, use rate 8 gai/ha, 20 DAT, read-out: solo application % activity", "value": 0, "unit": "%"}, {"measurement": "inhibition at 2 g/ha", "setting": "[2]; DIGSA POST, read-out: % activity", "value": 10, "unit": "%"}, {"measurement": "inhibition at 8 g/ha", "setting": "[2]; DIGSA POST, use rate 8 gai/ha, read-out: % activity", "value": 25, "unit": "%"}, {"measurement": "inhibition at 8 g/ha", "setting": "[3]; 480 h, POST, IPOHE, use rate 8 gai/ha, 20 DAT, read-out: solo application % activity", "value": 80, "unit": "%"}, {"measurement": "inhibition at 2 g/ha", "setting": "[3]; IPOHE POST, use rate 2 gai/ha, read-out: % activity", "value": 40, "unit": "%"}, {"measurement": "pest or weed control at 2 g/ha", "setting": "[4]; I-4 solo 2 gai/ha", "value": 10, "unit": "%"}, {"measurement": "pest or weed control at 8 g/ha", "setting": "[4]; I-4 solo 8 gai/ha", "value": 30, "unit": "%"}, {"measurement": "inhibition at 2 g/ha", "setting": "[4]; use rate 2 gai/ha, read-out: solo application % activity", "value": 5, "unit": "%"}, {"measurement": "inhibition at 8 g/ha", "setting": "[4]; use rate 8 gai/ha, read-out: solo application % activity", "value": 25, "unit": "%"}, {"measurement": "inhibition at 4 g/ha", "setting": "[5]; 240 h, PRE, use rate 4 gai/ha, 10 DAT", "value": 10, "unit": "%"}, {"measurement": "pest or weed control at 8 g/ha", "setting": "[5]; 480 h, PRE, AMBEL, I-4 solo 8 gai/ha, 20 DAT", "value": 35, "unit": "%"}, {"measurement": "inhibition at 2 g/ha", "setting": "[5]; 480 h, PRE, AMBEL, use rate 2 gai/ha, 20 DAT, read-out: solo application % activity", "value": 0, "unit": "%"}, {"measurement": "inhibition at 8 g/ha", "setting": "[5]; 480 h, PRE, AMBEL, 20 DAT, read-out: solo application % activity", "value": 30, "unit": "%"}, {"measurement": "inhibition at 8 g/ha", "setting": "[5]; AMBEL PRE, read-out: % activity", "value": 15, "unit": "%"}, {"measurement": "pest or weed control at 2 g/ha", "setting": "[6]; 480 h, PRE, LOLMU, I-4 solo 2 gai/ha, 20 DAT, read-out: % activity", "value": 10, "unit": "%"}, {"measurement": "pest or weed control at 8 g/ha", "setting": "[6]; 480 h, PRE, LOLMU, I-4 solo 8 gai/ha, 20 DAT", "value": 65, "unit": "%"}, {"measurement": "inhibition at 2 g/ha", "setting": "[6]; 480 h, PRE, LOLMU, use rate 2 gai/ha, 20 DAT, read-out: solo application % activity", "value": 5, "unit": "%"}, {"measurement": "inhibition at 8 g/ha", "setting": "[6]; 480 h, PRE, LOLMU, 20 DAT, read-out: solo application % activity", "value": 60, "unit": "%"}, {"measurement": "inhibition at 8 g/ha", "setting": "[6]; LOLMU PRE, read-out: % activity", "value": 35, "unit": "%"}, {"measurement": "inhibition at 8 g/ha", "setting": "[7]; 240 h, PRE, 10 DAT, read-out: % activity", "value": 50, "unit": "%"}, {"measurement": "inhibition at 16 g/ha", "setting": "[7]; 240 h, PRE, use rate 16 gai/ha, 10 DAT", "value": 70, "unit": "%"}, {"measurement": "pest or weed control at 2 g/ha", "setting": "[7]; 480 h, PRE, ABUTH, I-4 solo 2 gai/ha, 20 DAT", "value": 35, "unit": "%"}, {"measurement": "inhibition at 8 g/ha", "setting": "[7]; 480 h, PRE, ABUTH, 20 DAT, read-out: solo application % activity", "value": 90, "unit": "%"}, {"measurement": "inhibition at 2 g/ha", "setting": "[7]; ABUTH PRE, use rate 2 gai/ha, read-out: % activity", "value": 10, "unit": "%"}, {"measurement": "inhibition at 8 g/ha", "setting": "[7]; ABUTH PRE, read-out: % activity", "value": 80, "unit": "%"}, {"measurement": "inhibition at 2 g/ha", "setting": "[8]; use rate 2 gai/ha", "value": 30, "unit": "%"}, {"measurement": "inhibition at 8 g/ha", "setting": "[8]; use rate 8 gai/ha", "value": 35, "unit": "%"}, {"measurement": "pest or weed control at 8 g/ha", "setting": "[9]; 480 h, PRE, SETVI, I-4 solo 8 gai/ha, 20 DAT", "value": 80, "unit": "%"}, {"measurement": "inhibition at 2 g/ha", "setting": "[9]; 480 h, PRE, SETVI, 20 DAT, read-out: solo application % activity", "value": 5, "unit": "%"}, {"measurement": "inhibition at 8 g/ha", "setting": "[9]; 480 h, PRE, SETVI, use rate 8 gai/ha, 20 DAT, read-out: solo application % activity", "value": 75, "unit": "%"}, {"measurement": "inhibition at 2 g/ha", "setting": "[9]; SETVI PRE, read-out: % activity", "value": 50, "unit": "%"}, {"measurement": "pest or weed control at 8 g/ha", "setting": "[10]; 480 h, PRE, EPHHL, I-4 solo 8 gai/ha, 20 DAT", "value": 5, "unit": "%"}, {"measurement": "inhibition at 2 g/ha", "setting": "[10]; 480 h, PRE, EPHHL, use rate 2 gai/ha, 20 DAT, read-out: solo application % activity", "value": 0, "unit": "%"}, {"measurement": "inhibition at 8 g/ha", "setting": "[10]; 480 h, PRE, EPHHL, 20 DAT, read-out: solo application % activity", "value": 10, "unit": "%"}, {"measurement": "inhibition at 8 g/ha", "setting": "[10]; EPHHL PRE, read-out: % activity", "value": 40, "unit": "%"}, {"measurement": "inhibition at 2 g/ha", "setting": "[11]", "value": 10, "unit": "%"}]}
